{
  "source": "paper PMC4861903",
  "about": "“Synthesis of a highly water-soluble acacetin prodrug for treating experimental atrial fibrillation in beagle dogs” (Scientific Reports, 2016)",
  "key": {"[1]": {"target": "T1, hKv4.3 current (Ito, KCND3) (Homo sapiens, UniProt Q9UK17)", "T1 construct": "expressed in transfected cells", "T1 sequence (Q9UK17 1-655)": "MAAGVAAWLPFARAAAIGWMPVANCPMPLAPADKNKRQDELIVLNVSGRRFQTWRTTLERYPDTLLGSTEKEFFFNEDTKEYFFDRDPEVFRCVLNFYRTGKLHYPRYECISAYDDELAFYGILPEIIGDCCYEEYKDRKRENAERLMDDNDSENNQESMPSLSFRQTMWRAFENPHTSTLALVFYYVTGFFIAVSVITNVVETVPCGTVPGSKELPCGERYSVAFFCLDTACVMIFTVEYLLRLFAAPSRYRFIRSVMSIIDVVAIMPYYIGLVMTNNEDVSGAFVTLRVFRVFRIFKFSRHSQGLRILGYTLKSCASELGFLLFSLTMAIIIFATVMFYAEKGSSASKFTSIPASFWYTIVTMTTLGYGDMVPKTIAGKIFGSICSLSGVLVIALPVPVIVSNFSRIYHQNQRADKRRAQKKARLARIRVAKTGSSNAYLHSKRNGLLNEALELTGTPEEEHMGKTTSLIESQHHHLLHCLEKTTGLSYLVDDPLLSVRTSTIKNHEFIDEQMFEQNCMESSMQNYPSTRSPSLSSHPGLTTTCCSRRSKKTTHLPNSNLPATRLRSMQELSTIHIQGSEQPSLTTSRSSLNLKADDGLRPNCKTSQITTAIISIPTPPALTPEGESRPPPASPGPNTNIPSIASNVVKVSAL", "assay": "Whole-cell patch clamp of hKv4.3 current in HEK 293 cells", "assay_type": "cell-based", "conditions": "30 μM, at +50 mV, n = 5", "procedure": "Whole-cell currents of hKv1.5 and hKv4.3 were recorded in established HEK 293 cell lines stably expressing hKv1.5 (KCN5A) and hKv4.3 (KCND3) and IKACh was determined in isolated rat atrial myocytes as described previously[12][31][32] and in Supplemental Materials. […]\nEffects of acacetin prodrug on cardiac potassium currents\nWhole-cell currents of hKv1.5 and hKv4.3 were recorded in established HEK 293 cell lines stably expressing hKv1.5 (KCN5A) and hKv4.3 (KCND3).1, 2 The cells were cultured in Dulbecco’s modified eagle’s medium (DMEM, Invitrogen, Hong Kong) supplemented with 10% fetal bovine serum and 400 µg/mL G418. Cells on a coverslip were transferred to an open cell chamber (0.5 ml) mounted on the stage of an inverted microscope and superfused with Tyrode’s solution at 2 mL/min. The whole cell patch-clamp technique was used as described previously.1, 2 The whole-cell membrane currents were measured using an EPC-10 amplifier and Pulse software (Heka Elektronik, Lambrecht, Germany). Borosilicate glass electrodes (1.2-mm OD) were pulled with a Brown/Flaming puller (model P-97, Sutter Instrument, Nato, CA) and had resistances of 1.5~2.5 MΩ when filled with the pipette solution. A 3-M KCl agar bridge was used as the reference electrode. The tip potential was zeroed before the patch pipette contacted the cell. […]"}, "[2]": {"system": "experimental AF induced by vagal nerve stimulation and burst atrial pacing", "assay": "Vagal nerve stimulation-induced AF in beagle dogs", "assay_type": "in vivo", "conditions": "for AF duration in animals with effective AF termination: vehicle 30 min", "procedure": "The anti-AF effect of acacetin prodrug was investigated in AF model (with AF duration of 30 min), which was established in beagle dogs with modified procedure as described previously. After three-repeats of stable AF (30 min), drug treatment was applied on 4th repeat (Fig. 5A). Acacetin prodrug dissolved in 5% glucose was administrated intravenously after 1 min of onset of AF induction. A bolus of one third dosage was infused within 2 min, then two third of the dosage (3, 6, and 12 mg/kg) was continuously infused for 18 min. The AF disappeared within 30 min before stopping bilateral vagal nerve stimulation was considered to be effective termination of AF (Fig. 5B). Blood samples were collected at different time points (5, 10, 20, 30, 45 and 60 min) during the experiment to determine the plasma acacetin concentrations. Figure 5C illustrates the termination rate of AF by different doses of acacetin prodrug. […] In addition, AF induction was repeated at 40 min after discontinuous prodrug infusion. AF was terminated at 25.3 ±1.8 min after re-induction (P < 0.01 vs. vehicle) in these animals (n = 15) with drug treatment, but not in animals treated with 5% glucose vehicle (30 min duration). However, the duration of AF was longer than during the initial drug administration (25.3 ± 1.8 min vs.17.1 ± 1.3 min, P < 0.01).\nExperimental AF was induced by vagal nerve stimulation in beagle dogs with modified procedure as described previously. Briefly, AF was generated by a 10-s burst atrial pacing with a 4-fold diastolic threshold potential (60-ms interval) after 30 s vagal nerve stimulation. If AF persisted for 30 min, it was terminated by stopping vagal nerve stimulation. The stable AF lasting for 30 min was repeated for three times (20 min interval), drug test (vehicle or different doses of acacetin prodrug) was then performed. A shortened duration of AF during the continuous vagal nerve stimulation was considered to be effective termination of AF for drug treatment. […]\nChina) were anesthetized with pentobarbital (40 mg/kg, i.v.), supplemented as necessary during the experiment. The animal was kept on an operation table maintained at 37°C, intubated and ventilated with room air. The left femoral vein was cannulated to maintain fluid balance, anesthesia, and test articles. Lead II electrocardiogram (ECG) was continuously monitored with using a digital recording system (RM6240, Chengdu Instruments, China)\nAn action potential (MAP) recording- and pacing-catheter (Boston Scientific Ltd) was introduced to the right atrium through right jugular vein, and an electrical pacing catheter was introduced to left ventricle via […] for ventricular pacing (when necessary).\nBilateral cervical vagal nerves were isolated and bipolar electrodes were placed to stimulate efferent vagal nerves with 15 Hz, 0.2 ms duration voltage step (80-100% threshold) to induce a 50% reduction of heart rate. Ventricular pacing was performed with 2-ms voltage pulses (2.5 Hz, 150% diastolic threshold) when vagal nerves were continuously stimulated. Experimental atrial fibrillation (AF) model is established in beagle dogs with modified procedure as described previously.8-10 Briefly, AF was generated by a 10-s burst atrial pacing with a 4-fold diastolic threshold potential (60 ms interval) after 30 s vagal nerves stimulation. If AF persisted for 30 min, AF was terminated by stopping vagal nerve stimulation. After stable persistent AF lasing for 30 min was repeated for three times (20 min interval), drug test (vehicle or different doses of phosphate sodium salt prodrug of acacetin) was performed. A shortened AF duration during the continuous vagal stimulation was considered to be effective termination of AF. All the biological signals were recorded using the digital recording system (RM6240, Chengdu […]\nInstruments, China). […]\nSixty ICR mice (male, 30; female, 30) were stratified […]"}},
  "data": [
    {"compound": "COc1ccc(-c2cc(=O)c3c(O)cc(OP(=O)([O-])[O-])cc3o2)cc1.[Na+].[Na+]", "note": "[acacetin prodrug, phosphate sodium salt of acacetin]", "values": [
      {"measurement": "inhibition of hKv4.3 current", "setting": "[1]", "value": "no significant inhibition"},
      {"measurement": "termination rate of AF", "setting": "[2]; 3 mg/kg i.v. (1/3 bolus in 2 min, 2/3 infused 18 min), 3 of 6 dogs, vehicle 0%", "value": 50, "unit": "%"},
      {"measurement": "termination rate of AF", "setting": "[2]; 6 mg/kg i.v. (1/3 bolus in 2 min, 2/3 infused 18 min), 6 of 8 dogs, P < 0.05 vs. vehicle", "value": 75, "unit": "%"},
      {"measurement": "AF duration in animals with effective AF termination", "setting": "[2]; 6 mg/kg i.v.", "value": "17.2 ± 2.3", "unit": "min"},
      {"measurement": "termination rate of AF", "setting": "[2]; 12 mg/kg i.v. (1/3 bolus in 2 min, 2/3 infused 18 min), 5 of 7 dogs, P < 0.05 vs. vehicle", "value": 71.4, "unit": "%"},
      {"measurement": "AF duration in animals with effective AF termination", "setting": "[2]; 12 mg/kg i.v.", "value": "15.5 ± 2.7", "unit": "min"},
      {"measurement": "AF terminated at, after re-induction", "setting": "[2]; AF induction repeated at 40 min after discontinuous prodrug infusion, all doses pooled, n = 15, P < 0.01 vs. vehicle (30 min)", "value": "25.3 ± 1.8", "unit": "min"},
      {"measurement": "duration of AF during the initial drug administration", "setting": "[2]; all doses pooled, animals with drug treatment", "value": "17.1 ± 1.3", "unit": "min"}
    ]}
  ]
}
